Results reported in ChEMBL document CHEMBL4715686, “Differently fluorescence-labelled dibenzodiazepinone-type muscarinic acetylcholine receptor ligands with high M2R affinity” (RSC Med Chem, 2020).

Experiments:
[1] = molecular target: T1, Muscarinic acetylcholine receptor M4 (Homo sapiens, UniProt P08173); assay: Displacement of [3H]-NMS from muscarinic M4 receptor (unknown origin) expressed in NG108-15 cells by scintillation counting analysis; assay type: cell-based
T1 sequence (P08173 whole entry): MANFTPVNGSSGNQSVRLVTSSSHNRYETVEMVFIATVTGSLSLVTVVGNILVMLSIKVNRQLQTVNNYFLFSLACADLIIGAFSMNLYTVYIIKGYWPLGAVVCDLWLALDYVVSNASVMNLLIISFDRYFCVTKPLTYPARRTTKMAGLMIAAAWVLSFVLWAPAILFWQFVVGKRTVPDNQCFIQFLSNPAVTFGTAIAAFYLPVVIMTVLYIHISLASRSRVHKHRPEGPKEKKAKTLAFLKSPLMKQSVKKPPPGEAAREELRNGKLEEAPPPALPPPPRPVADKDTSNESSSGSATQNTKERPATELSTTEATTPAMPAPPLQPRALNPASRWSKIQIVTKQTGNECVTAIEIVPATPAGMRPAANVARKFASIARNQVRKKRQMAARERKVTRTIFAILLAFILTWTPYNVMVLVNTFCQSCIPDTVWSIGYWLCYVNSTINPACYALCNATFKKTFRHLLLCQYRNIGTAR

[2] = molecular target: T2, Muscarinic acetylcholine receptor M2 (Homo sapiens, UniProt P08172); assay: Displacement of [3H]-NMS from muscarinic M2 receptor (unknown origin) expressed in A9 cells by scintillation counting analysis; assay type: cell-based
[3] = molecular target: T2, Muscarinic acetylcholine receptor M2; assay: Displacement of [3H]NMS from human recombinant muscarinic receptor M2 expressed in CHO-K9 cell membranes measured after 3 hrs by radioligand competition binding assay; set-up: species or system Membrane
[4] = molecular target: T3, Muscarinic acetylcholine receptor M1 (Homo sapiens, UniProt P11229); assay: Displacement of [3H]NMS from human recombinant muscarinic receptor M1 expressed in CHO-K9 cell membranes measured after 3 hrs by radioligand competition binding assay; set-up: species or system Membrane
T3 sequence (P11229 whole entry): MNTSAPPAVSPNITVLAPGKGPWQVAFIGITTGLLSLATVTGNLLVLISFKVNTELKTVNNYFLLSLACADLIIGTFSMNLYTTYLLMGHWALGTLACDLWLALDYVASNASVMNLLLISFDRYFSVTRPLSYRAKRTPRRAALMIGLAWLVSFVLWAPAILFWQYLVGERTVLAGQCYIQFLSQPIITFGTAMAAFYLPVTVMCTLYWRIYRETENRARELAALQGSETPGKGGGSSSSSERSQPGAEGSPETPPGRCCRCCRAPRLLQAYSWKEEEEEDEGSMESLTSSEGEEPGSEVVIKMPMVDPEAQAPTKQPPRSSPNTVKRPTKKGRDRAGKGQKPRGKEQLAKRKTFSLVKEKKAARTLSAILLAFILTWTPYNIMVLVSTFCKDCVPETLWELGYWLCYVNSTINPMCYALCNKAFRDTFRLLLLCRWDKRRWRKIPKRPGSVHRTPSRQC

[5] = molecular target: T4, Muscarinic acetylcholine receptor M2 (Homo sapiens, UniProt P08172); assay: Binding affinity to human muscarinic M2 receptor expressed in CHO-K9 cells assessed as unspecific binding at Kd incubated in dark at 22 degree C for 2 hrs in presence of atropine by FACSCantoII flow cytometric saturation binding study relative to control; assay type: cell-based
T4 sequence (P08172 whole entry): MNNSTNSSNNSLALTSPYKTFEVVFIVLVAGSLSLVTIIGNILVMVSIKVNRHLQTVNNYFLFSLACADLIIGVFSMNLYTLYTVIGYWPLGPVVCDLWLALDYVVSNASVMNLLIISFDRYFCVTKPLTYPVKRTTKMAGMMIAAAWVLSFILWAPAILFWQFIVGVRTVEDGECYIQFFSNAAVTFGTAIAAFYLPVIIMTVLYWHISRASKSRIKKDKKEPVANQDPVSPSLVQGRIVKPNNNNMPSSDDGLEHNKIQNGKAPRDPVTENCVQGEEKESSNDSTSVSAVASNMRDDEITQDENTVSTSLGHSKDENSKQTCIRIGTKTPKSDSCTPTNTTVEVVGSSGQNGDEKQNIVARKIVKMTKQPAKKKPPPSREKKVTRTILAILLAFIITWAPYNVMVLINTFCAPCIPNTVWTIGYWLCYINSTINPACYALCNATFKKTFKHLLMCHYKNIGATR

[6] = molecular target: T5, Muscarinic acetylcholine receptor M5 (Homo sapiens, UniProt P08912); assay: Displacement of [3H]NMS from human recombinant muscarinic receptor M5 expressed in CHO-K9 cell membranes measured after 3 hrs by radioligand competition binding assay; set-up: species or system Membrane
T5 sequence (P08912 whole entry): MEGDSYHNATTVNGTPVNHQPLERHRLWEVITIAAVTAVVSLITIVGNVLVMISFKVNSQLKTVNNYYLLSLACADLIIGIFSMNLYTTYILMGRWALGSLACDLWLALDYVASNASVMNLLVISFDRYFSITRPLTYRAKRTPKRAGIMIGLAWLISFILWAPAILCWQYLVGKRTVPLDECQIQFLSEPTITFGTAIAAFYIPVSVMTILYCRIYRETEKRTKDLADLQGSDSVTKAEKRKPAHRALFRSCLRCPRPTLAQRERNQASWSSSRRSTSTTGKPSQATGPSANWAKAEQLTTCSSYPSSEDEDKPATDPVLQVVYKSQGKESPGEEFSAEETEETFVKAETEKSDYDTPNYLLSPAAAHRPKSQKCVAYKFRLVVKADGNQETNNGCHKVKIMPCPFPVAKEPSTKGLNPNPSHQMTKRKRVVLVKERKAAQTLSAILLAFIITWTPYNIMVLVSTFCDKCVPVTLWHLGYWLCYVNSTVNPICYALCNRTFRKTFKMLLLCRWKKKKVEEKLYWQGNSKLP

[7] = molecular target: T1, Muscarinic acetylcholine receptor M4; assay: Displacement of [3H]NMS from human recombinant muscarinic receptor M4 expressed in CHO-K9 cell membranes measured after 3 hrs by radioligand competition binding assay; set-up: species or system Membrane
[8] = molecular target: Muscarinic acetylcholine receptor M3 (Homo sapiens, UniProt P20309); assay: Displacement of [3H]NMS from human recombinant muscarinic receptor M3 expressed in CHO-K9 cell membranes measured after 3 hrs by radioligand competition binding assay; set-up: species or system Membrane
[9] = molecular target: T4, Muscarinic acetylcholine receptor M2; assay: Binding affinity to human muscarinic M2 receptor expressed in CHO-K9 cells assessed as unspecific binding at Kd incubated in dark at 22 degree C for 2 hrs in presence of atropine by FACSCalibur flow cytometric saturation binding study relative to control; assay type: cell-based

Chain of Muscarinic acetylcholine receptor M3 (P20309 whole entry): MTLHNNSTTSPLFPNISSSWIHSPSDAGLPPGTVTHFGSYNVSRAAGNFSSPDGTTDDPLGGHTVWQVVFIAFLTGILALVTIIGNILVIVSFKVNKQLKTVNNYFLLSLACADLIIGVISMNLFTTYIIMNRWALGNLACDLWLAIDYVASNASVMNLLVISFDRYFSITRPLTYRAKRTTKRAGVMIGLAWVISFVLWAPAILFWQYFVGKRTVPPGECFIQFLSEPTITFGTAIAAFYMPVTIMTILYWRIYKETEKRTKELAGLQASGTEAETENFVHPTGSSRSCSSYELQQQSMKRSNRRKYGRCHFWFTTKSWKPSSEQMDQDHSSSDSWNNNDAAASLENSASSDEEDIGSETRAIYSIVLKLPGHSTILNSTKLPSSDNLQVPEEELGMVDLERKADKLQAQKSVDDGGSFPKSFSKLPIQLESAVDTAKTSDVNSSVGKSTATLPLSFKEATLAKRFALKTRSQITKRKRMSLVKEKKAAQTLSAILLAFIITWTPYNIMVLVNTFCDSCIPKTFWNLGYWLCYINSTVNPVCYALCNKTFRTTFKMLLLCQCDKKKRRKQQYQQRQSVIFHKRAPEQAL

| Compound | Ki [1] [nM] | Ki [2] [nM] | Ki [3] [nM] | Ki [4] [nM] | Kd ([5]; read-out: Kd) [nM] | Kd ([5]; read-out: pKd (converted)) [nM] | Ki [6] [nM] | Ki [7] [nM] | Ki [8] [nM] | Kd ([9]; read-out: Kd) [nM] | Kd ([9]; read-out: pKd (converted)) [nM] |
| --- | --- | --- | --- | --- | --- | --- | --- | --- | --- | --- | --- |
| CCN(CC)CCCCC1CCN(CC(=O)N2c3ccccc3NC(=O)c3ccccc32)CC1 | 2 | 0.316 | – | – | – | – | – | – | – | – | – |
| Cc1cc(/C=C/c2cc3c4c(c2)CCCN4CCC3)cc(C)[n+]1CCNC(=O)CCc1cn(CCCCC2CCN(CC(=O)N3c4ccccc4NC(=O)c4ccccc43)CC2)cn1 | – | – | 1.35 | 7.08 | 3.8 | 2 | 40.7 | 2.63 | 69.2 | – | – |
| Cc1cc(/C=C/c2cc3c4c(c2)CCCN4CCC3)cc(C)[n+]1CCN1CCN(CCCCC2CCN(CC(=O)N3c4ccccc4NC(=O)c4ccccc43)CC2)CC1 | – | – | 0.955 | 4.79 | 1.9 | 0.646 | 126 | 2.69 | 63.1 | – | – |
| Cc1cc(/C=C/C=C/c2ccc(N(C)C)cc2)cc(C)[n+]1CCNC(=O)CCc1cn(CCCCC2CCN(CC(=O)N3c4ccccc4NC(=O)c4ccccc43)CC2)cn1 | – | – | 0.912 | 4.9 | 2 | – | 70.8 | 4.27 | 85.1 | – | – |
| CN(C)c1ccc2c(-c3ccc(C(=O)NCCNC(=O)CCc4cn(CCCCC5CCN(CC(=O)N6c7ccccc7NC(=O)c7ccccc76)CC5)cn4)cc3C(=O)[O-])c3ccc(=[N+](C)C)cc-3oc2c1 | – | – | 1.78 | 6.17 | 2.4 | 4.37 | 275 | 3.72 | 129 | – | – |
| Cc1scc2c1N(C(=O)CN1CCN(CCCCCCCCCCNC(=O)c3ccc(-c4c5ccc(=N)c(S(=O)(=O)O)c-5oc5c(S(=O)(=O)O)c(N)ccc45)c(C(=O)O)c3)CC1)c1ccccc1NC2=O | – | – | 1.58 | 0.501 | – | – | – | – | – | – | – |

The next lines start with the values.

| Ki [1] [nM] | Ki [2] [nM] | Ki [3] [nM] | Ki [4] [nM] | Kd ([5]; read-out: Kd) [nM] | Kd ([5]; read-out: pKd (converted)) [nM] | Ki [6] [nM] | Ki [7] [nM] | Ki [8] [nM] | Kd ([9]; read-out: Kd) [nM] | Kd ([9]; read-out: pKd (converted)) [nM] | Compound |
| --- | --- | --- | --- | --- | --- | --- | --- | --- | --- | --- | --- |
| – | – | 0.0398 | 0.0316 | – | – | – | – | – | – | – | Cc1scc2c1N(C(=O)CN1CCN(CCCCCCCCCCNC(=O)Cc3ccc4c(c3)C(C)(C)C3=C5C=C6C7=[N+](CCC6OC5CCN34)c3ccc(S(=O)(=O)[O-])cc3C7(C)C)CC1)c1ccccc1NC2=O (stereo not given) |
| – | – | 0.562 | – | – | – | – | – | – | – | – | NCCN1CCN(CCCCC2CCN(CC(=O)N3c4ccccc4NC(=O)c4ccccc43)CC2)CC1 |
| – | – | – | – | 1.4 | 2.34 | – | – | – | – | – | Cc1cc(/C=C/C=C/c2ccc(N(C)C)cc2)cc(C)[n+]1CCN1CCN(CCCCC2CCN(CC(=O)N3c4ccccc4NC(=O)c4ccccc43)CC2)CC1 |
| – | – | 0.692 | 1 | 4.5 | 3.89 | 10 | 0.417 | 37.2 | – | – | O=C(CCCCCNC(=O)COc1ccc(/C=C/C2=[N+]3C(=Cc4ccc(-c5cccs5)n4[B-]3(F)F)C=C2)cc1)NCCNC(=O)CCc1cn(CCCCC2CCN(CC(=O)N3c4ccccc4NC(=O)c4ccccc43)CC2)cn1 |
| – | – | 0.24 | 2.57 | – | – | 178 | 0.977 | 81.3 | 0.6 | 1.38 | CN(C)c1ccc2c(-c3ccc(C(=O)NCCN4CCN(CCCCC5CCN(CC(=O)N6c7ccccc7NC(=O)c7ccccc76)CC5)CC4)cc3C(=O)[O-])c3ccc(=[N+](C)C)cc-3oc2c1 |
